# According to PubChem BioAssay (NCI):
#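 Each compound was tested at five concentrations against cells in 96-well plates for 48 hours. GI50 = concentration required for 50% inhibition of growth. TGI marks complete inhibition of growth.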
# Assays:
# Experiment in all cases: inhibition of tumour cell growth, NCI panel, 48 h
# A498 renal = tested on: A498 renal
# SNB-75 CNS = tested on: SNB-75 CNS
# ACHN renal = tested on: ACHN renal
# EKVX NSCLC = tested on: EKVX NSCLC
# SNB-19 CNS = tested on: SNB-19 CNS
# T-47D breast = tested on: T-47D breast
# SK-MEL-5 melanoma = tested on: SK-MEL-5 melanoma
# RXF 393 renal = tested on: RXF 393 renal
# HCT-116 colon = tested on: HCT-116 colon
# SN12C renal = tested on: SN12C renal
SMILES,TGI (A498 renal) [µM],TGI (SNB-75 CNS) [µM],TGI (ACHN renal) [µM],TGI (EKVX NSCLC) [µM],TGI (SNB-19 CNS) [µM],TGI (T-47D breast) [µM],TGI (SK-MEL-5 melanoma) [µM],TGI (RXF 393 renal) [µM],TGI (HCT-116 colon) [µM],TGI (SN12C renal) [µM],GI50 (A498 renal) [µM],GI50 (SNB-75 CNS) [µM],GI50 (ACHN renal) [µM],GI50 (EKVX NSCLC) [µM],GI50 (SNB-19 CNS) [µM],GI50 (T-47D breast) [µM],GI50 (SK-MEL-5 melanoma) [µM],GI50 (RXF 393 renal) [µM],GI50 (HCT-116 colon) [µM],GI50 (SN12C renal) [µM]
C/C=C/C(C/C=C(\C)CO[Si](C)(C)C(C)(C)C)O[Si](C)(C)C(C)(C)C (configuration not stated),> 100,> 100,> 100,> 100,> 100,> 100,> 100,> 100,> 100,> 100,–,–,–,–,–,–,–,–,–,–
COc1ncc(-c2ccc3nc(N)n(-c4ccccc4C(F)(F)F)c(=O)c3c2)cc1S(=O)(=O)Nc1ccc(F)cc1F,1.96,> 100,> 100,> 100,45.8,> 100,0.944,4.46,15.9,> 100,0.329,0.866,5.77,0.86,7.87,0.425,0.273,0.099,1.7,4.52
COc1cnc2c(c1)C(=O)c1c-2n(CCCN2CCNCC2)c(=O)c2cc(F)ccc12,1.9,2.87,0.554,2.08,1.24,13.2,1.65,1.73,1.31,0.89,0.352,0.368,0.0553,0.441,0.13,0.266,0.217,0.27,0.0919,0.0806
CC(=O)Nc1ccc(S(=O)(=O)N2C(=O)CCC2C(=O)Nc2ccccc2)cc1 (configuration not stated),8.77,6.86,14.3,–,19.2,14.6,5.31,13.9,20,22.6,0.303,1.63,0.241,–,1.74,0.283,0.367,3.48,0.389,2.68
CC1(C)N=C(N)N=C(N)N1c1cccc(CC(=O)Nc2ccccc2)c1,> 100,> 100,> 100,> 100,> 100,> 100,> 100,> 100,> 100,> 100,22.8,15.4,> 100,> 100,39.7,> 100,4.44,> 100,4.28,4.84
c1c[nH]c(CN2CCN(Cc3ncc[nH]3)CC2)n1,> 100,> 100,> 100,> 100,> 100,> 100,> 100,> 100,> 100,> 100,–,–,–,–,–,–,–,–,–,–
CC[C@@]12CC(C(=O)OC)=C3Nc4ccccc4[C@@]34CCN(C[C@H]3O[C@H]31)[C@@H]24,> 100,64.9,> 100,> 100,30.7,> 100,57.7,> 100,> 100,> 100,27.5,14.8,> 100,40.2,16.1,27.5,21.2,26.4,43.8,> 100
CC(C)OC(=O)OCOP(=O)(OCOC(=O)OC(C)C)C1CCCN(O)C1=O (configuration not stated),0.867,> 100,> 100,> 100,> 100,> 100,7.3,2.88,> 100,> 100,0.0732,5.46,0.888,3.03,1.21,1.98,1.3,0.316,0.711,0.281
Cc1ccccc1C1N=C2Oc3ccccc3C=C2C(=O)N1 (configuration not stated),2.58,> 100,> 100,–,> 100,> 100,> 100,–,> 100,> 100,0.347,1.51,2.2,–,> 42.9,1.58,0.674,0.488,6.37,8.33
FC(F)(F)c1ccc(-c2cnc(-c3nn[nH]n3)nc2NC2CCCCCC2)cc1,> 10,> 10,> 10,–,> 10,> 10,> 10,> 10,> 10,> 10,> 10,> 10,> 10,–,> 10,> 10,> 10,> 10,> 10,> 10
CCc1ccc2cc3c(ccc4ccccc43)c3c2c1CC3,> 100,> 100,> 100,–,> 100,> 100,> 100,> 100,> 100,> 100,> 100,> 100,> 100,–,> 100,> 100,> 100,> 100,> 100,> 100
C=C1C(=O)O[C@H]2[C@H]1CC/C(COC(=O)NCc1ccc(Cn3c(=O)sn(CCCI)c3=O)cc1)=C\CC[C@@]1(C)O[C@@H]21,16.8,–,3.19,6.77,13.8,3.84,3.55,2.95,2.57,3.62,4.85,–,1.7,2.09,3.12,1.79,1.91,1.52,1.05,1.57
CNC(=S)N/N=C/CSC/C=N/NC(=S)NC,> 100,> 100,> 100,–,> 100,> 100,> 100,> 100,> 100,> 100,> 100,> 100,> 100,–,> 100,0.667,> 100,> 100,8.33,> 100
